Tests used:
[1] = test system: antigen-induced hypertussive response to citric acid; experiment: Antigen-Induced Hypertussive Model (ovalbumin, citric acid challenge); format: in vivo; settings: sensitized guinea pigs exposed to inhaled ovalbumin
Experimental: The effects of the compound are then assessed on the hypertussive response that occurs 72 hours post aerosol exposure to antigen or LTD4 exposure. Treatment of the animals occurs with the drug prior and/or after antigen or LTD4 challenge, but not on the day of citric acid challenge. Inhalation of citric acid (CA; 0.4% for 1 minute) induced 11 to 15 coughs, during the exposure and 12-minute monitoring period in conscious guinea pigs.

[2] = test system: LTD4-induced hypertussive response and airway eosinophilia; experiment: LTD4-Induced Hypertussive Model (citric acid challenge); format: in vivo, guinea pigs; settings: oral 30 mg/kg b.i.d., inhaled LTD4 10 ug/ml for 1 minute, 72 hours after exposure
Experimental: The effects of the compound are then assessed on the hypertussive response that occurs 72 hours post aerosol exposure to antigen or LTD4 exposure. Treatment of the animals occurs with the drug prior and/or after antigen or LTD4 challenge, but not on the day of citric acid challenge. […] Similarly, inhalation of LTD4 (10 ug/ml for 1 minute) increased cough incidence and airway esoinophiles 72 hours after exposure.

[3] = test system: citric acid-induced cough; experiment: Citric Acid Induced Cough Model (direct antitussive activity); format: in vivo; settings: inhaled citric acid-induced cough, conscious guinea pigs; FIG. 4
Experimental: The directed antitussive activity of the compound in question if first assessed, by a 10 to 30 minute pretreatment period by intraperitoneal injection or a 1 hour pretreatment period for oral administration. The animals (guinea pigs) are then subjected to an inhaled citric acid-induced cough challenge. Inhalation of citric acid (CA; 0.4% for 1 minute) induced 11 to 15 coughs, during the exposure and 12-minute monitoring period in conscious guinea pigs.

SMILES: COc1nccc(-c2c(-c3ccc(F)cc3)ncn2[C@H]2CC[C@H](O)CC2)n1 [Compound I, trans-1-(4-Hydroxycyclohexyl)-4-(4-fluorophenyl)-5-[(2methoxy)pyrimidin-4-yl]imidazole]
- airway eosinophilia ([1]; bronchoalveolar lavage): reduce airway eosinophilia
- hypertussive state (CA-induced cough incidence) ([1]; citric acid challenge): normalizes the hypertussive state
- LTD4-induced eosinophilia [2]: blocked the LTD4-induced esoinophilia
- cough response after LTD4 ([2]; FIG. 5): normalized the cough response
- direct antitussive effect [3]: no direct antitussive effect

From patent publication US20040092532A1, “Use of p38 inhibitors for the treatment of smoke inhalation” (priority 2003, published 2004)
